# US11878975B2, “Substituted indole compounds useful as TLR inhibitors” (BRISTOL-MYERS SQUIBB COMPANY, priority 2017, dated 2024)
# Experiments:
# Type in all cases: cell-based
# human TLR9 = biological target: T1, human TLR9 (Homo sapiens, UniProt Q9NR96); experiment: TLR9 inhibition reporter assay (HEK-Blue cells, SEAP reporter, ODN2006 stimulation); details: HEK-Blue cells overexpressing human TLR9, SEAP reporter, ODN2006 5 nM
# T1 construct: host or cells: HEK-Blue cells
# T1 sequence (Q9NR96 26-1032): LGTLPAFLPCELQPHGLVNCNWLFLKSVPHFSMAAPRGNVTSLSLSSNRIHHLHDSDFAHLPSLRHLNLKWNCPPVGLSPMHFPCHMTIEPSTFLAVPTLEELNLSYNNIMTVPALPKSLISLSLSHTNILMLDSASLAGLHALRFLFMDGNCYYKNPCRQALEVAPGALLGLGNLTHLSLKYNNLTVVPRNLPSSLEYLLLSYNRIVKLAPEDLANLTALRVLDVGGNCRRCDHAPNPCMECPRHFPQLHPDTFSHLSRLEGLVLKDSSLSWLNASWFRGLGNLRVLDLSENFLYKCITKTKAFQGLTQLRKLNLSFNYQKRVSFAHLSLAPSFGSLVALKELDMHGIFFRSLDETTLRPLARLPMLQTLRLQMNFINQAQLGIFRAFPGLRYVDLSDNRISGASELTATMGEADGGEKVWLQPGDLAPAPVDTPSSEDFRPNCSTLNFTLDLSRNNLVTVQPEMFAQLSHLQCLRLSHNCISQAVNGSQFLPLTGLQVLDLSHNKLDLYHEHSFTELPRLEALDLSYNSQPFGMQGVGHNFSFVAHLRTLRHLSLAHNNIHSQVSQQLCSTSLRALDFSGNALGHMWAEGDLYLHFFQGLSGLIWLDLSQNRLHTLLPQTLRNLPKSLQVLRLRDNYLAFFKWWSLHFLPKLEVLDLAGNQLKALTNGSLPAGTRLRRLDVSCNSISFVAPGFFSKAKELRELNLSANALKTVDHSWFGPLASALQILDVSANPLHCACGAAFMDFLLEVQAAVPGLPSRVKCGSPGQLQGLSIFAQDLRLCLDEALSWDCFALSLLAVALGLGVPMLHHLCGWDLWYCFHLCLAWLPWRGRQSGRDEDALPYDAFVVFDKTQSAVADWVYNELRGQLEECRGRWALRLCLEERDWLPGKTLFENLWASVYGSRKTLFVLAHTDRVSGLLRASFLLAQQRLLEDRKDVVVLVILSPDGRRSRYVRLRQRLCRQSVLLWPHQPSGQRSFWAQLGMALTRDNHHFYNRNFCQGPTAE
# In short: (§1)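 Percent inhibition is derived from SEAP signal, scaled between agonist-plus-DMSO wells and wells given a known inhibitor. Test compounds (0.05 nM–50 μM) are pre-incubated 30 min at room temperature before agonist addition (TLR7: 7.5 μM gardiquimod; TLR8: 15.9 μM R848; TLR9: 5 nM ODN2006) and 22 h culture at 37 °C.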
# human TLR8 = biological target: T2, human TLR8 (Homo sapiens, UniProt Q9NR97); experiment: TLR8 inhibition reporter assay (HEK-Blue cells, SEAP reporter, R848 stimulation); details: HEK-Blue cells overexpressing human TLR8, SEAP reporter, R848 15.9 μM
# T2 construct: host or cells: HEK-Blue cells
# T2 sequence (Q9NR97 27-1041): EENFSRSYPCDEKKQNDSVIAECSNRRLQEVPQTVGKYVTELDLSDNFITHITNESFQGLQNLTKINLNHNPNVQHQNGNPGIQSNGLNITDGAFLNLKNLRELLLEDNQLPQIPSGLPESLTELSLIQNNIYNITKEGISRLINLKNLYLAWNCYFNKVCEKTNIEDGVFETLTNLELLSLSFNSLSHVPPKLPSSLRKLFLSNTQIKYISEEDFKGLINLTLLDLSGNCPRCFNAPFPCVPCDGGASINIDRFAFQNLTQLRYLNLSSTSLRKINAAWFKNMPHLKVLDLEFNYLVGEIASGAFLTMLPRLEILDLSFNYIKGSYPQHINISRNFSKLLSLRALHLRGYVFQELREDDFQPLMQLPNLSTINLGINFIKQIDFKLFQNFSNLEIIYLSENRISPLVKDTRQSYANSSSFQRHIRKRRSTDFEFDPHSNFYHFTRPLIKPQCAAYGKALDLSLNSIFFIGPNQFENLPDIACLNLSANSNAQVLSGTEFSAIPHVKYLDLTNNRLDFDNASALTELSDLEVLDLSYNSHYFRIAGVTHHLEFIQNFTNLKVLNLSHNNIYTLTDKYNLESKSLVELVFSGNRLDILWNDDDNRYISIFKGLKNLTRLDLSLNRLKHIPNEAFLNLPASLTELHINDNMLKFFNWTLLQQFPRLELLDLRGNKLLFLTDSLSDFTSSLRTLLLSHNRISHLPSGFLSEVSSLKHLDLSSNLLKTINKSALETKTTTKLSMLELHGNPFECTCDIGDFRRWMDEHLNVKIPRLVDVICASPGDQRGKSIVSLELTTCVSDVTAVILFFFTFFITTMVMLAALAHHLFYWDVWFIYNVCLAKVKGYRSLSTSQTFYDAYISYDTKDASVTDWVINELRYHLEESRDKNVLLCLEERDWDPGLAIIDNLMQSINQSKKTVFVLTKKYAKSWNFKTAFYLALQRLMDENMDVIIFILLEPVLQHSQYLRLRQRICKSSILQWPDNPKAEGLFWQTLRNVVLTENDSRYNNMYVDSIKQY
# In short: as §1
# human TLR7 = biological target: T3, human TLR7 (Homo sapiens, UniProt Q9NYK1); experiment: TLR7 inhibition reporter assay (HEK-Blue cells, SEAP reporter, gardiquimod stimulation); details: HEK-Blue cells overexpressing human TLR7, SEAP reporter, gardiquimod 7.5 μM
# T3 construct: host or cells: HEK-Blue cells
# T3 sequence (Q9NYK1 27-1049): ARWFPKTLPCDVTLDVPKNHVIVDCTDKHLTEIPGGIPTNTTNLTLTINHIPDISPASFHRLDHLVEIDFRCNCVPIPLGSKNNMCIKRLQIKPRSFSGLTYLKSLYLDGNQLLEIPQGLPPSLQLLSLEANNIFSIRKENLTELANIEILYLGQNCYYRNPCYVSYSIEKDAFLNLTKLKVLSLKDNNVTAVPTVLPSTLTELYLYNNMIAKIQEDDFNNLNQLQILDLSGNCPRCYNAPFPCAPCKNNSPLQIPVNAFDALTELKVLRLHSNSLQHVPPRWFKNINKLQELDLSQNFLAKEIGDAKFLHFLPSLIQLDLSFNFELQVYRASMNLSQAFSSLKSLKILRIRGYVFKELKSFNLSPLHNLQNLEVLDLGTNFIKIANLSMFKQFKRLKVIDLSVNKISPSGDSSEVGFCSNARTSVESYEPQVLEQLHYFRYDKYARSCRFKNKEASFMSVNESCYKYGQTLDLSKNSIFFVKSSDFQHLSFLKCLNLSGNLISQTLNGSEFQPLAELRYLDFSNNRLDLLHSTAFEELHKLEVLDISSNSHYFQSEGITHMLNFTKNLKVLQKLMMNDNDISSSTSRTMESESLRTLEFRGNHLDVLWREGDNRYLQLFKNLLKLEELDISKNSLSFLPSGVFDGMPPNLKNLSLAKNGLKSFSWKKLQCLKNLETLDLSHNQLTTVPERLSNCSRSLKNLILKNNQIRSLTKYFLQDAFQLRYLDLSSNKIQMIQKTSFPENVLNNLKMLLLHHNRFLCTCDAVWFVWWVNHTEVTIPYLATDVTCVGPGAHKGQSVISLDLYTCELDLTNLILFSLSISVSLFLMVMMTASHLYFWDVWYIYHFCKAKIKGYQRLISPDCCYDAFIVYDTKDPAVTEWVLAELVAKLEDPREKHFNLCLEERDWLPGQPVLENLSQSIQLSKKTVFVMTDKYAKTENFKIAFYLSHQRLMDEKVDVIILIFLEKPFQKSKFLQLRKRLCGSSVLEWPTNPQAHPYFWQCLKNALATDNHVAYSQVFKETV
# In short: as §1
SMILES,IC50 (human TLR9) [nM],IC50 (human TLR8) [nM],IC50 (human TLR7) [nM]
COc1cc(-c2[nH]c3ccc(C4CCCN(C5CCOCC5)C4)cc3c2C(C)C)cn2ncnc12 (stereo not drawn) [Example 244],1190,0.69,4
Cc1cc(-c2[nH]c3ccc(C4CCCN(C5CCN(C(C)C)CC5)C4)cc3c2C(C)C)cc(C)n1 (stereo not drawn) [Example 245],419,19,104
Cc1cc(-c2[nH]c3ccc(C4CCCN(Cc5c[nH]c(C)n5)C4)cc3c2C(C)C)cc(C)n1 (stereo not drawn) [Example 246],56,16,10
Cc1cc(-c2[nH]c3ccc(C4CCCN(Cc5c[nH]c(C)n5)C4)cc3c2C(C)C)cc(C)n1 (stereo not drawn) [Example 247],116,6.9,8
"COc1cc(-c2[nH]c3ccc(C4CCCN(CC(C)(C)O)C4)cc3c2C(C)C)cn2ncnc12 (stereo not drawn) [Example 248, 1-(3-(3-isopropyl-2-(8-methoxy-[1,2,4]triazolo[1,5-a]pyridin-6-yl)-1H-indol-5-yl)piperidin-1-yl)-2-methylpropan-2-ol]",2010,2.1,0.76
COc1cc(-c2[nH]c3ccc(C4CCCN(CC(C)(C)O)C4)cc3c2C(C)C)cn2ncnc12 (stereo not drawn) [Example 249],2330,1.2,2
"COCCN1CCCC(c2ccc3[nH]c(-c4cc(OC)c5ncnn5c4)c(C(C)C)c3c2)C1 (stereo not drawn) [Example 251, 6-(3-isopropyl-5-(1-(2-methoxyethyl)piperidin-3-yl)-1H-indol-2-yl)-8-methoxy-[1,2,4]triazolo[1,5-a]pyridine]",5260,3.2,3
COc1cc(-c2[nH]c3ccc(C4CCCN(CCS(C)(=O)=O)C4)cc3c2C(C)C)cn2ncnc12 (stereo not drawn) [Example 253],6220,4.4,5
"CNCCN1CCCC(c2ccc3[nH]c(-c4ccc(OC)c(OC)c4)c(C(C)C)c3c2)C1 (stereo not drawn) [Example 254, 2-(3-(2-(3,4-dimethoxyphenyl)-3-isopropyl-1H-indol-5-yl)piperidin-1-yl)-N-methylethanamine]",742,16,107
CNCCN1CCCC(c2ccc3[nH]c(-c4ccnc(C)c4)c(C(C)C)c3c2)C1 (stereo not drawn) [Example 255],157,5.2,19
CNCCN1CCCC(c2ccc3[nH]c(-c4ccnc(C)c4)c(C(C)C)c3c2)C1 (stereo not drawn) [Example 256],611,3.2,226
"Cc1cc(-c2[nH]c3ccc(C4CNC4)cc3c2C(C)C)cn2ncnc12 [Example 257, 6-(5-(azetidin-3-yl)-3-isopropyl-1H-indol-2-yl)-8-methyl-[1,2,4]triazolo[1,5-a]pyridine]",760,1.9,0.44
Cc1cc(-c2[nH]c3ccc(C4CNC4)cc3c2C(C)C)cc(C)n1 [Example 259],700,11,4
"CNC(=O)CN1CC(c2ccc3[nH]c(-c4cc(C)c5ncnn5c4)c(C(C)C)c3c2)C1 [Example 260, 2-(3-(3-isopropyl-2-(8-methyl-[1,2,4]triazolo[1,5-a]pyridin-6-yl)-1H-indol-5-yl)azetidin-1-yl)-N-methylacetamide]",5250,3.9,2
Cc1cc(-c2[nH]c3ccc(C4CN(CC(=O)N(C)C)C4)cc3c2C(C)C)cn2ncnc12 [Example 261],3320,11,4
COc1cc(-c2[nH]c3ccc(C4CN(CC(=O)N(C)C)C4)cc3c2C(C)C)cn2ncnc12 [Example 262],22900,66,618
CNC(=O)CN1CC(c2ccc3[nH]c(-c4cc(OC)c5ncnn5c4)c(C(C)C)c3c2)C1 [Example 263],3620,4,2
Cc1cc(-c2[nH]c3ccc(C4CN(CCS(C)(=O)=O)C4)cc3c2C(C)C)cn2ncnc12 [Example 264],8170,19,3
COc1cc(-c2[nH]c3ccc(C4CN(CCS(C)(=O)=O)C4)cc3c2C(C)C)cn2ncnc12 [Example 265],3420,2.9,1
"Cc1cc(-c2[nH]c3ccc(C4CN(C(=O)CN(C)C)C4)cc3c2C(C)C)cn2ncnc12 [Example 266, 2-(dimethylamino)-1-(3-(3-isopropyl-2-(8-methyl-[1,2,4]triazolo[1,5-a]pyridin-6-yl)-1H-indol-5-yl)azetidin-1-yl)ethan-1-one]",1450,2.9,0.31
"CNCC(=O)N1CC(c2ccc3[nH]c(-c4cc(C)c5ncnn5c4)c(C(C)C)c3c2)C1 [Example 267, 1-(3-(3-isopropyl-2-(8-methyl-[1,2,4]triazolo[1,5-a]pyridin-6-yl)-1H-indol-5-yl)azetidin-1-yl)-2-(methylamino)ethan-1-one]",2000,5.5,0.96
